Assays:
prolyl endopeptidase = molecular target: T1, prolyl endopeptidase (Rattus norvegicus, UniProt O70196); assay: Prolyl endopeptidase-inhibitory activity; assay type: biochemical; settings: for IC50: prolyl endopeptidase extracted from rat brain, pH 7.0, 30° C., read-out: IC50
T1 construct: prolyl endopeptidase extracted from rat brain; from tissue; host or cells: rat brain
Summary of the method: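 Rat brain prolyl endopeptidase was preincubated with compound for 30 min at 30 °C in 0.1 M potassium sodium phosphate, pH 7.0. Substrate Suc-Gly-Pro-MCA was then added from a 0.2 mM stock and the reaction run 1 h at 30 °C. After ice stop, fluorescence was read (ex 370/em 440 nm), and IC50 was estimated graphically from % inhibition.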

trypsin = molecular target: T2, trypsin (Bos taurus, UniProt P00760); assay: Determination of trypsin-inhibitory activity; assay type: biochemical, bovine; settings: read-out: inhibition rate, trypsin
T2 construct: purchased Sigma; host or cells: bovine pancreas
T2 sequence (P00760 24-246): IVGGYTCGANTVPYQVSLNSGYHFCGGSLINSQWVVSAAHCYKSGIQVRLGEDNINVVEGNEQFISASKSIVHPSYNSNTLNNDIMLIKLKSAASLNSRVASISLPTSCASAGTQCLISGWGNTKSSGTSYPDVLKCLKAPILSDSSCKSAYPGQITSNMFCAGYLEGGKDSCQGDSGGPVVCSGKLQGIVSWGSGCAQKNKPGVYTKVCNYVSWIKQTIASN
Summary of the method: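 Bovine pancreatic trypsin and compound in 50 mM Tris-HCl pH 8.0 with Pro-Phe-Arg-MCA substrate, 1 h at 30 °C, stopped on ice. Fluorescence at ex 370/em 440 nm. Inhibition rate from compound, no-enzyme and no-compound wells.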

chymotrypsin = molecular target: T3, chymotrypsin (Bos taurus, UniProt P00766); assay: Determination of chymotrypsin-inhibitory activity; assay type: biochemical, bovine; settings: read-out: inhibition rate, chymotrypsin
T3 construct: purchased Sigma; host or cells: bovine pancreas
Summary of the method: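 Bovine pancreatic chymotrypsin (0.2 μM enzyme solution) assayed in 50 mM Tris-HCl, pH 8.0, with the fluorogenic substrate Suc-Leu-Leu-Val-Tyr-MCA. Fluorescence was read with and without inhibitor, and percent inhibition was calculated from the fluorescence values.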

leucine aminopeptidase = assay: Determination of leucine aminopeptidase-inhibitory activity; assay type: biochemical, swine; set-up: unit not given here
Summary of the method: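 Swine kidney leucine aminopeptidase ([…] enzyme solution) was measured in 50 mM Tris-HCl pH 8.0 with 7-leucyl-4-methyl-coumarinamide (200 μM substrate solution). Inhibition rate was calculated from fluorescence readings.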

elastase = molecular target: T4, elastase (Sus scrofa, UniProt P00772); assay: Determination of elastase-inhibitory activity; assay type: biochemical, swine; settings: read-out: inhibition rate, elastase
T4 construct: purchased Sigma; host or cells: swine pancreas
T4 sequence (P00772 27-266): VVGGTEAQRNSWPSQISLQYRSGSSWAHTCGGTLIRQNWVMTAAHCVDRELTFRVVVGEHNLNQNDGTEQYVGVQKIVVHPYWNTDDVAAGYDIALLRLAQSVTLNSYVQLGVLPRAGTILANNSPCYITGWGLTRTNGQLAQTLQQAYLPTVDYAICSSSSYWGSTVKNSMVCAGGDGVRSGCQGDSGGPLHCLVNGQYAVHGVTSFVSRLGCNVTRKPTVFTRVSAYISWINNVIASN
Summary of the method: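 Porcine pancreatic elastase (0.2 μM solution) with 200 μM succinyl-Ala-Pro-Ala-4-methylcoumarinamide substrate solution in 1 mM Tris-HCl pH 8.5. Fluorescence measured and inhibition rate calculated by formula.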

cathepsin B = molecular target: T5, cathepsin B (Bos taurus, UniProt P07688); assay: Determination of cathepsin B-inhibitory activity; assay type: biochemical, bovine; settings: read-out: inhibition rate, cathepsin B
T5 construct: purchased Sigma; host or cells: bovine spleen
Summary of the method: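 Bovine spleen cathepsin B (0.02 μM solution) was assayed in 100 mM sodium phosphate, pH 6.0, with 1.33 mM EDTA. The substrate was Z-Phe-Arg-4-methylcoumarinamide (200 μM solution). Percent inhibition was calculated from fluorescence readings.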

[1] = read-out: inhibition rate, prolyl endopeptidase

T1 sequence (O70196 whole entry): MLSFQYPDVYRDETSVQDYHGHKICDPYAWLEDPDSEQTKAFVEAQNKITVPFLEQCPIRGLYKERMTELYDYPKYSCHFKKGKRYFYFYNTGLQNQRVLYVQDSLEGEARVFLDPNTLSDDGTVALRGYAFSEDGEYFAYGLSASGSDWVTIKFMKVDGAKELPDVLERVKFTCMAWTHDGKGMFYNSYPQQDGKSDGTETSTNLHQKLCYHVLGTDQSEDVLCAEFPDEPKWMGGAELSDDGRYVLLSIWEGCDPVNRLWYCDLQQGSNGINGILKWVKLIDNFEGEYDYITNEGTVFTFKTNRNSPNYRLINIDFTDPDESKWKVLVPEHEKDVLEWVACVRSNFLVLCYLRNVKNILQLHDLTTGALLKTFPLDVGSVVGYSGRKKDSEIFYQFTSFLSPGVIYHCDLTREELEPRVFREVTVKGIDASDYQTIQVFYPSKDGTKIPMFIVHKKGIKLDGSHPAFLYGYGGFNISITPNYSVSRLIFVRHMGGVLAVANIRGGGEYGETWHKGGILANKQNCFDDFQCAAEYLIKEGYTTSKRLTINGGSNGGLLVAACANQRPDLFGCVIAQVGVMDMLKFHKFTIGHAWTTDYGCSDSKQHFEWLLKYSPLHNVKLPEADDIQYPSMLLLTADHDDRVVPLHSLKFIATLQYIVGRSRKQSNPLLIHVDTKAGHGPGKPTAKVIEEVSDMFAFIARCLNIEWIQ

SMILES | inhibition at 1 µM (prolyl endopeptidase; [1]) | IC50 (prolyl endopeptidase) | inhibition at 1 µM (trypsin) | inhibition at 1 µM (chymotrypsin) | inhibition rate, leucine aminopeptidase (leucine aminopeptidase; 1 μM) | inhibition at 1 µM (elastase) | inhibition at 1 µM (cathepsin B) | inhibition at 0.1 µM (prolyl endopeptidase; 0.1 μM, read-out: inhibition rate, prolyl endopeptidase) | inhibition at 0.1 µM (trypsin; 0.1 μM) | inhibition at 0.1 µM (chymotrypsin; 0.1 μM) | inhibition rate, leucine aminopeptidase (leucine aminopeptidase; 0.1 μM) | inhibition at 0.1 µM (elastase; 0.1 μM) | inhibition at 0.1 µM (cathepsin B; 0.1 μM)
O=C(COc1ccccc1)[C@@H]1CCCN1C(=O)[C@@H]1CCCN1C(=O)COc1ccccc1 [Compound 46, (2S)-2-(Phenoxyacetyl)-1-[N-(phenoxyacetyl)-L-prolyl]pyrrolidine] | 93% | 60 nM | 0% | 0% | 0 | 0% | 0% |  |  |  |  |  | 
COc1ccc(OCC(=O)[C@@H]2CCCN2C(=O)[C@@H]2CCCN2C(=O)COc2ccccc2)cc1 [Compound 47, (2S)-2-(4-Methoxyphenoxyacetyl)-1-[N-(phenoxyacetyl)-L-prolyl]pyrrolidine] | 98% | 50 nM | 0% | 0% | 0 | 0% | 0% |  |  |  |  |  | 
COc1ccc(OCC(=O)[C@@H]2CCCN2C(=O)[C@@H]2CCCN2C(=O)CNc2ccccc2)cc1 [Compound 48, (2S)-2-(4-Methoxyphenoxyacetyl)-1-[N-(N-phenylglycyl)-L-prolyl]pyrrolidine] | 90% | 60 nM | 0% | 0% | 0 | 0% | 0% |  |  |  |  |  | 
COc1ccc(OCC(=O)[C@@H]2CCCN2C(=O)[C@@H]2CCCN2C(=O)CSc2ccccc2)cc1 [Compound 49, (25)-2-(4-Methoxyphenoxyacetyl)-1-{N-[(phenylthio)acetyl]-L-prolyl}pyrrolidine] | 98% | 20 nM | 0% | 0% | 0 | 0% | 0% |  |  |  |  |  | 
COc1ccc(OCC(=O)[C@@H]2CCCN2C(=O)[C@@H]2CCCN2C(=O)OCC23CC4CC(CC(C4)C2)C3)cc1 [Compound 50, (2S)-1-{N-[(1-Adamantyl)methoxycarbonyl]-L-prolyl}-2-(4-methoxyphenoxyacetyl)pyrrolidine] | 97% | 500 nM | 0% | 0% | 0 | 0% | 0% |  |  |  |  |  | 
O=C(COc1ccccc1)[C@@H]1CCCN1C(=O)[C@@H]1CSCN1C(=O)NCc1ccccc1 [Compound 51, (2S)-1-[N-(Benzylaminocarbonyl)-L-thioprolyl]-2-(phenoxyacetyl)pyrrolidine] | 98% | 15 nM | 0% | 0% | 0 | 0% | 0% |  |  |  |  |  | 
CCOC(=O)CN(Cc1ccccc1)C(=O)N1CCC[C@H]1C(=O)N1CCC[C@H]1C(=O)COc1ccccc1 [Compound 52, (2S)-1-{N-[N-Benzyl-N-(ethoxycarbonylmethyl)aminocarbonyl]-L-prolyl}-2-(phenoxyacetyl)pyrrolidine] |  | 2 nM |  |  |  |  |  | 97% | 0% | 0% | 0 | 0% | 0%
CCOC(=O)[C@@H](NC(=O)N1CCC[C@H]1C(=O)N1CCC[C@H]1C(=O)COc1ccccc1)c1ccccc1 [Compound 53, (2S)-1-[N-[[(S)-α-(Ethoxycarbonyl)benzylamino]carbonyl]-L-prolyl]-2-(phenoxyacetyl)pyrrolidine] | 96% | 30 nM | 0% | 0% | 0 | 0% | 0% |  |  |  |  |  | 
O=C(COc1ccccn1)[C@@H]1CCCN1C(=O)[C@@H]1CCCN1C(=O)NCc1ccccc1 [Compound 54, (2S)-1-[N-(Benzylaminocarbonyl)-L-prolyl]-2-[(2-pyridyloxy)acetyl]pyrrolidine] | 85% | 200 nM | 0% | 0% | 0 | 0% | 0% |  |  |  |  |  | 
